From patent publication US11203571B2, “Sulfonamides as modulators of sodium channels” (VERTEX PHARMACEUTICALS INCORPORATED, priority 2013, dated 2021)
pIC50: −log10 of the molar value.

Legend:
[1] = target: human Nav1.8 (Homo sapiens (Human), UniProt Q9Y5Y9); assay: E-VIPR optical membrane potential assay with electrical stimulation; assay type: cell-based; details: HEK cells expressing human Nav1.8
Source text: E-VIPR Optical Membrane Potential Assay Method with Electrical Stimulation
Sodium channels are voltage-dependent proteins that can be activated by inducing membrane voltage changes by applying electric fields. The electrical stimulation instrument and methods of use are described in Ion Channel Assay Methods PCT/US01/21652, herein incorporated by reference and are referred to as E-VIPR. The instrument comprises a microtiter plate handler, an optical system for exciting the coumarin dye while simultaneously recording the coumarin and oxonol emissions, a waveform generator, a current- or voltage-controlled amplifier, and a device for inserting electrodes in well. Under integrated computer control, this instrument passes user-programmed electrical stimulus protocols to cells within the wells of the microtiter plate.
24 hours before the assay on E-VIPR, HEK cells expressing human Nav1.8 were seeded in 384-well poly-lysine coated plates at 15,000-20,000 cells per well. HEK cells were grown in media (exact composition is specific to each cell type and NaV subtype) supplemented with 10% FBS (Fetal Bovine Serum, qualified; GibcoBRL #16140-071) and 1% Pen-Strep (Penicillin-Streptomycin; GibcoBRL #15140-122). Cells were grown in vented cap flasks, in 90% humidity and 5% CO2.
• 100 mg/mL Pluronic F-127 (Sigma #P2443), in dry DMSO • Compound Plates: 384-well round bottom plate, e.g. Corning 384-well Polypropylene Round Bottom #3656 • Cell Plates: 384-well tissue culture treated plate, e.g. Greiner #781091-1B • 10 mM DiSBAC6(3) (Aurora #00-100-010) in dry DMSO • 10 mM CC2-DMPE (Aurora #00-100-008) in dry DMSO • 200 mM ABSC1 in H20
Bath1 buffer: Glucose 10 mM (1.8 g/L), Magnesium Chloride (Anhydrous), 1 mM (0.095 g/L), Calcium Chloride, 2 mM (0.222 g/L), HEPES 10 mM (2.38 g/L), Potassium Chloride, 4.5 mM (0.335 g/L), Sodium Chloride 160 mM (9.35 g/L).
Hexyl Dye Solution: Bath1 Buffer+0.5% β-cyclodextrin (make this prior to use, Sigma #C4767), 8 μM CC2-DMPE+2.5 μM DiSBAC6(3). To make the solution Added volume of 10% Pluronic F127 stock equal to volumes of CC2-DMPE+DiSBAC6(3). The order of preparation was first mix Pluronic and CC2-DMPE, then added DiSBAC6(3) while vortexing, then added Bath1+β-Cyclodextrin.
1) Pre-spotted compounds (in neat DMSO) into compound plates. Vehicle control (neat DMSO), the positive control (20 mM DMSO stock tetracaine, 125 μM final in assay) and test compounds were added to each well at 160× desired final concentration in neat DMSO. Final compound plate volume was 80 μL (80-fold intermediate dilution from 1 μL DMSO spot; 160-fold final dilution after transfer to cell plate). Final DMSO concentration for all wells in assay was 0.625%.
2) Prepared Hexyl Dye Solution.
3) Prepared cell plates. On the day of the assay, medium was aspirated and cells were washed three times with 100 μL of Bath1 Solution, maintaining 25 μL residual volume in each well.
4) Dispensed 25 μL per well of Hexyl Dye Solution into cell plates. Incubated for 20-35 minutes at room temp or ambient conditions.
5) Dispensed 80 μL per well of Bath1 into compound plates. Acid Yellow-17 (1 mM) was added and Potassium Chloride was altered from 4.5 to 20 mM depending on the NaV subtype and assay sensitivity.
6) Washed cell plates three times with 100 μL per well of Bath1, leaving 25 μL of residual volume. Then transferred 25 uL per well from Compound Plates to Cell Plates. Incubated for 20-35 minutes at room temp/ambient condition.
7) Read Plate on E-VIPR. Used the current-controlled amplifier to deliver stimulation wave pulses for 10 seconds and a scan rate of 200 Hz. A pre-stimulus recording was performed for 0.5 seconds to obtain the un-stimulated intensities baseline. The stimulatory waveform was followed by 0.5 seconds of post-stimulation recording to examine the relaxation to the resting state.
Data was analyzed and reported as normalized ratios of emission intensities measured in the 460 nm and 580 nm channels. […]

[2] = Human liver microsome assay; assay type: in vitro ADME; details: 1 uM substrate, 0.5 mg/mL liver microsome, 2 mM NADPH, 37° C., referenced against time zero control
Method: Human Liver Microsome Assay Protocol
Liver microsomal stability data were generated as follows. Substrates were incubated at 37° C. and shaken for 30 minutes in a phosphate buffered solution with human liver microsomes and the cofactor NADPH. A time zero control was similarly prepared, however with NADPH excluded. The final incubation concentrations were 1 uM substrate (0.2% DMSO), 0.5 mg/mL liver microsome, 2 mM NADPH, and 0.1 M phosphate. Reactions were quenched and proteins precipitated with the addition of 2 volume equivalents of ice cold acetonitrile containing an internal standard. Following a centrifugation step, aliquots from the quenched incubations were further diluted with 4 volume equivalents of a 50% aqueous methanol solution and then subjected to LC/MS/MS analysis for quantitation of parent substrate. Microsome stability values were calculated as the percent of substrate remaining after 30 minutes referenced against the time zero control.

Sequence of human Nav1.8 (Q9Y5Y9 whole entry): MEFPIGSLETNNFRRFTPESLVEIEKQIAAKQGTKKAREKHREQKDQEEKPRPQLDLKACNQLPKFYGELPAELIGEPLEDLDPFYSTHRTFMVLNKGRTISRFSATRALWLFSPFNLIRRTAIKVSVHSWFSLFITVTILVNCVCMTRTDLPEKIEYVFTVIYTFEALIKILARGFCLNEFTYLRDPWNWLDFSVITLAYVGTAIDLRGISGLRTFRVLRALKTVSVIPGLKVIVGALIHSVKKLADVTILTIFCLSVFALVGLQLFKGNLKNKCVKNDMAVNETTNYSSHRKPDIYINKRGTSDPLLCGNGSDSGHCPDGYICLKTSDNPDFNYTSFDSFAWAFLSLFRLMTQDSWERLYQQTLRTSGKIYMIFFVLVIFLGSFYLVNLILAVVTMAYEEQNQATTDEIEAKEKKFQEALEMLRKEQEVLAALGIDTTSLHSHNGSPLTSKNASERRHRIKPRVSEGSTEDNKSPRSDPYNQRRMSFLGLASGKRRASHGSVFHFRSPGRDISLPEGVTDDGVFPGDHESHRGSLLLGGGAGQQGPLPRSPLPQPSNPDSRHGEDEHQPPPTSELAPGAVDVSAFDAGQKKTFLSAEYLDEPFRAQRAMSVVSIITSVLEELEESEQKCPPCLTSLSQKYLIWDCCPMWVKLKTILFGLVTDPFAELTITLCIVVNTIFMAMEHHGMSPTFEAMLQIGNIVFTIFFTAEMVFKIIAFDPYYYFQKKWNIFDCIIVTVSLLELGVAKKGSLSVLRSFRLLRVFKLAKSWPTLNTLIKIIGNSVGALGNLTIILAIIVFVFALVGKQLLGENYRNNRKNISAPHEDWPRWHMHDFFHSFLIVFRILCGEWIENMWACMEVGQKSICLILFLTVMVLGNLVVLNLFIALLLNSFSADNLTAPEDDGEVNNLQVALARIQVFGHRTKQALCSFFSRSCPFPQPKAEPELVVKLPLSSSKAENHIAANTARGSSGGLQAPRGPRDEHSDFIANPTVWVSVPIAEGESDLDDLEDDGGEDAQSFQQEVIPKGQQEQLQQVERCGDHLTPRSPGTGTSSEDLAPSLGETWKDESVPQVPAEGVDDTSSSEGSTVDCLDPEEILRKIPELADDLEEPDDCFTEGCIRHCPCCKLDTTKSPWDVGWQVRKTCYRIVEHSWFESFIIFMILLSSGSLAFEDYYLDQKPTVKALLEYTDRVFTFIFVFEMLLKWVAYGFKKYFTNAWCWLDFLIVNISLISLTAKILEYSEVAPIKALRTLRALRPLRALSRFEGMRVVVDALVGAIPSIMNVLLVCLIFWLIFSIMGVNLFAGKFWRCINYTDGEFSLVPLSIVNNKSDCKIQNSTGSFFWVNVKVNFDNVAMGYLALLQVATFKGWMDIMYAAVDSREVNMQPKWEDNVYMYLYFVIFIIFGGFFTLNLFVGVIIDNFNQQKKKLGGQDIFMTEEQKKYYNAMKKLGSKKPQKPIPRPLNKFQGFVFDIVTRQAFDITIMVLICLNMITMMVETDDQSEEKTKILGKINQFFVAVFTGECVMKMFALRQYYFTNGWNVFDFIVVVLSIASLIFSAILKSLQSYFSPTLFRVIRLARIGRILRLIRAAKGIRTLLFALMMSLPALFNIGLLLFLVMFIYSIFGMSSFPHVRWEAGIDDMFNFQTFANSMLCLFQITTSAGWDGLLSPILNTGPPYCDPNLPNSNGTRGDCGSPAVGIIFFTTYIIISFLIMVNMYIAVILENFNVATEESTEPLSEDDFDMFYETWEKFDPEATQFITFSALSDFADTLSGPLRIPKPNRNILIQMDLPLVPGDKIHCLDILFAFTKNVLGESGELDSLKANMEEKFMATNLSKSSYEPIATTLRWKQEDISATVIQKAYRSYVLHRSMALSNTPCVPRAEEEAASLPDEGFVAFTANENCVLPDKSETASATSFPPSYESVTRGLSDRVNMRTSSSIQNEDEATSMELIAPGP

Compound	pIC50 [1]	HLM: percent unchanged after 30 min [2] [%]
NS(=O)(=O)c1cccc(NC(=O)c2ccc(OC(F)(F)F)cc2Oc2ccccc2Cl)c1 [Compound 63, 2-(2-chlorophenoxy)-N-(3-sulfamoylphenyl)-4-(trifluoromethoxy)benzamide]	7.57	92
Cc1cc(F)ccc1Oc1ccc(Cl)cc1C(=O)Nc1cccc(S(N)(=O)=O)c1 [Compound 20, 5-chloro-2-(4-fluoro-2-methylphenoxy)-N-(3-sulfamoylphenyl)benzamide]	8.40	96
Cc1cccc(Oc2ccc(F)cc2Cl)c1C(=O)Nc1cccc(S(N)(=O)=O)c1 [Compound 38, 2-(2-chloro-4-fluorophenoxy)-6-methyl-N-(3-sulfamoylphenyl)benzamide]	7.85	105
COc1cc(Cl)ccc1Oc1cc(Cl)cc(Cl)c1C(=O)Nc1cccc(S(N)(=O)=O)c1 [Compound 98, 2,4-dichloro-6-(4-chloro-2-methoxyphenoxy)-N-(3-sulfamoylphenyl)benzamide]	9.10	62
Cc1cc(F)ccc1Oc1cc(C(F)(F)F)ccc1C(=O)Nc1cccc(S(N)(=O)=O)c1 [Compound 18, 2-(4-fluoro-2-methylphenoxy)-N-(3-sulfamoylphenyl)-4-(trifluoromethyl)benzamide]	8.15	98
COc1ccc(Oc2cc(OC(F)(F)F)ccc2C(=O)Nc2cccc(S(N)(=O)=O)c2)c(Cl)c1 [Compound 62, 2-(2-chloro-4-methoxyphenoxy)-N-(3-sulfamoylphenyl)-4-(trifluoromethoxy)benzamide]	7.80	81
NS(=O)(=O)c1cccc(NC(=O)c2cc(Cl)ccc2Oc2ccc(F)cc2Cl)c1 [Compound 17, 5-chloro-2-(2-chloro-4-fluorophenoxy)-N-(3-sulfamoylphenyl)benzamide]	8.30	102
NS(=O)(=O)c1cccc(NC(=O)c2cc(Cl)ccc2Oc2ccc(F)cc2)c1 [Compound 5, 5-chloro-2-(4-fluorophenoxy)-N-(3-sulfamoylphenyl)benzamide]	7.68	107
COc1ccc(Oc2cccc(C(F)(F)F)c2C(=O)Nc2cccc(S(N)(=O)=O)c2)cc1F [Compound 61, 2-(3-fluoro-4-methoxyphenoxy)-N-(3-sulfamoylphenyl)-6-(trifluoromethyl)benzamide]	7.55	68
COc1cc(F)ccc1Oc1ccc(C(F)(F)F)cc1C(=O)Nc1cccc(S(N)(=O)=O)c1 [Compound 27, 2-(4-fluoro-2-methoxyphenoxy)-N-(3-sulfamoylphenyl)-5-(trifluoromethyl)benzamide]	8.22	101
CCOc1ccc(Oc2ccc(C(F)(F)F)cc2C(=O)Nc2cccc(S(N)(=O)=O)c2)cc1 [Compound 23, 2-(4-ethoxyphenoxy)-N-(3-sulfamoylphenyl)-5-(trifluoromethyl)benzamide]	7.85	75
COc1c(Cl)cccc1Oc1cc(C(F)(F)F)ccc1C(=O)Nc1cccc(S(N)(=O)=O)c1 [Compound 68, 2-(3-chloro-2-methoxyphenoxy)-N-(3-sulfamoylphenyl)-4-(trifluoromethyl)benzamide]	8.05	80
NS(=O)(=O)c1cccc(NC(=O)c2cc(C(F)(F)F)ccc2Oc2ccc(F)cc2Cl)c1 [Compound 26, 2-(2-chloro-4-fluorophenoxy)-N-(3-sulfamoylphenyl)-5-(trifluoromethyl)benzamide]	8.40	119
COc1ccc(Oc2cc(Cl)c(Cl)cc2C(=O)Nc2cccc(S(N)(=O)=O)c2)c(F)c1 [Compound 81, 4,5-dichloro-2-(2-fluoro-4-methoxyphenoxy)-N-(3-sulfamoylphenyl)benzamide]	8.10	88
COc1cc(F)ccc1Oc1cc(C(F)(F)C(F)(F)F)ccc1C(=O)Nc1cccc(S(N)(=O)=O)c1 [Compound 70, 2-(4-fluoro-2-methoxyphenoxy)-4-(perfluoroethyl)-N-(3-sulfamoylphenyl)benzamide]	7.89	87
COc1cc(F)ccc1Oc1cc(C#N)ccc1C(=O)Nc1cccc(S(N)(=O)=O)c1 [Compound 10, 4-cyano-2-(4-fluoro-2-methoxyphenoxy)-N-(3-sulfamoylphenyl)benzamide]	7.70	86
NS(=O)(=O)c1cccc(NC(=O)c2c(Cl)cc(Cl)cc2Oc2ccc(OC(F)(F)F)cc2)c1 [Compound 97, 2,4-dichloro-N-(3-sulfamoylphenyl)-6-(4-(trifluoromethoxy)phenoxy)benzamide]	8.40	102
NS(=O)(=O)c1cccc(NC(=O)c2cc(C(F)(F)F)ccc2Oc2ccc(Cl)cc2)c1 [Compound 24, 2-(4-chlorophenoxy)-N-(3-sulfamoylphenyl)-5-(trifluoromethyl)benzamide]	7.52	102
NS(=O)(=O)c1cccc(NC(=O)c2ccc(C(F)(F)C(F)(F)F)cc2Oc2ccc(F)cc2)c1 [Compound 69, 2-(4-fluorophenoxy)-4-(perfluoroethyl)-N-(3-sulfamoylphenyl)benzamide]	7.59	110
COc1cc(F)ccc1Oc1cc(Cl)ccc1C(=O)Nc1cccc(S(N)(=O)=O)c1 [Compound 15, 4-chloro-2-(4-fluoro-2-methoxy-phenoxy)-N-(3-sulfamoylphenyl)benzamide]	7.89	81
CCCOc1ccccc1Oc1cc(C(F)(F)F)ccc1C(=O)Nc1cccc(S(N)(=O)=O)c1 [Compound 46, 2-(2-propoxyphenoxy)-N-(3-sulfamoylphenyl)-4-(trifluoromethyl)benzamide]	7.85	67
COc1ccc(Oc2cc(C(F)(F)F)ccc2C(=O)Nc2cccc(S(N)(=O)=O)c2)c(Cl)c1 [Compound 48, 2-(2-chloro-4-methoxyphenoxy)-N-(3-sulfamoylphenyl)-4-(trifluoromethyl)benzamide]	8.00	68
COc1ccc(Oc2cc(C(F)(F)C(F)(F)F)ccc2C(=O)Nc2cccc(S(N)(=O)=O)c2)c(Cl)c1 [Compound 72, 2-(2-chloro-4-methoxyphenoxy)-4-(perfluoroethyl)-N-(3-sulfamoylphenyl)benzamide]	7.70	67
